For 23 compounds, IC50 results are on record in patent US20140357662A1, “THIENO (2,3 - C) PYRAZOLES FOR USE AS POTASSIUM CHANNEL INHIBITORS” (XENTION LIMITED, priority 2011, published 2014).

pIC50: −log10 of the molar value.

The target in the experiment is T1, rat Kir3.1/3.4 (Rattus norvegicus, UniProt P48548+P63251).
T1 construct: expressed in transfected cells; host or cells: HEK293 (Human Embryonic Kidney 293), stably transfected
T1 sequence (P63251 1-501): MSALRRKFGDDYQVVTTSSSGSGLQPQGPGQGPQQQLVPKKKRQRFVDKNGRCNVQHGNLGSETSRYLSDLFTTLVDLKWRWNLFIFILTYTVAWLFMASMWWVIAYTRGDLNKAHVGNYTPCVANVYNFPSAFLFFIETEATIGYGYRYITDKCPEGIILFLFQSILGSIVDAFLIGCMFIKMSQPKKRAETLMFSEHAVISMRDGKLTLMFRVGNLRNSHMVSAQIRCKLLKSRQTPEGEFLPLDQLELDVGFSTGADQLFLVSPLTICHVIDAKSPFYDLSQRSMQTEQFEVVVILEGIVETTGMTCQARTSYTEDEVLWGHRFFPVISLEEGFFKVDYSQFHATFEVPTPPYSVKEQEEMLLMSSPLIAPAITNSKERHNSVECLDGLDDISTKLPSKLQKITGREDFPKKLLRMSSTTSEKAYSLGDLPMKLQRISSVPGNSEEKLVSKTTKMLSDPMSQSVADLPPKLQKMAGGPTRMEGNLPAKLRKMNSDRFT
T1 sequence (P48548 1-419): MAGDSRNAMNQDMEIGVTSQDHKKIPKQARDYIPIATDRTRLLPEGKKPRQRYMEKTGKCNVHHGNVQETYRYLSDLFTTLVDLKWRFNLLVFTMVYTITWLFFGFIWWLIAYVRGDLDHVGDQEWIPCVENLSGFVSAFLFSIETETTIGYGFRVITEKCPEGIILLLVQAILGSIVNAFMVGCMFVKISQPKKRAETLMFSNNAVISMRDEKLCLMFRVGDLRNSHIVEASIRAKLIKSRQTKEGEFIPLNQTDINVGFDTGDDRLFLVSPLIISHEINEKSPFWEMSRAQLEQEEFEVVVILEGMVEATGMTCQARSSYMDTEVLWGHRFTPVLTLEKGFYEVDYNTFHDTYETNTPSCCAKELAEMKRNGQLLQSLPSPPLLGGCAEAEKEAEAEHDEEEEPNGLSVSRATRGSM
The experiment in a line: Kir3.1/3.4 Electrophysiology Method (manual whole-cell patch clamp). It counts as cell-based. Conditions: Human Embryonic Kidney 293 stably transfected with rat Kir3.1/3.4; inhibition of leak-subtracted current at -140 mV. As to the method: Compound activity against the recombinant G-protein activated inward rectifier current encoded by the heterotetramer Kir3.1/3.4 was assessed using manual whole-cell patch technique. The heterotetramer forms the pore-forming channel that conducts the acetylcholine/adenosine-activated potassium current in the heart.
For whole-cell patch-clamp studies, cells (Human Embryonic Kidney 293 stably transfected with rat Kir3.1/3.4) were seeded onto glass coverslips before recordings were made. Cells were seeded in sterile 30 mm Petri dishes at a density to enable isolated cells to be selected for patch clamp experiments. The dishes were stored in a humidified, gassed (5% CO2) incubator at 37° C. until use.
Whole-cell patch-clamp recordings of membrane currents were made following gigaohm seal formation between the patch electrode and the cell using HEKA EPC-9/10 amplifiers controlled by Pulse Software (Ver8.5x/8.6x/8.7x, HEKA, Germany). Coverslips seeded with cells were placed in a recording chamber mounted on the stage of an inverted microscope. During the experiment, the cell of interest was continuously superfused with bather solution delivered via a cannula placed in close proximity to the cell to enable control of the extracellular solution environment. Only those cells with a current <−500 pA (current at −140 mV) were used for experiments. During experiments, series resistance was compensated by a minimum of 70%.
Electrophysiology voltage-step protocols and analysis of data were performed as follows. Data was sampled at 5 kHz, and filtered with a −3 dB bandwidth of 2.5 kHz. Cells were held at a voltage of −60 mV. Currents were evoked by a depolarising voltage step to +60 mV (100 ms) before a ramp-repolarisation (0.4 V·s^−1) to −140 mV (100 ms) before returning to −60 mV. The command waveform was repeatedly applied every 10 s throughout the experiment. Mean currents during 1-99% of the time at −140 mV were analysed using Pulsefit software (v8.x, HEKA, Germany). The voltage protocol was repeatedly applied to achieve a stable current baseline in bather before the test substance was superfused via the cannula in close proximity to the cell under investigation. The test substance was allowed to equilibrate during which time voltage protocol was repeatedly applied and recorded. On reaching steady-state inhibition, the cell was superfused with an identical bather solution containing zero external potassium chloride (replaced by equimolar NaCl). The identical current measurement was made in the absence of potassium to assess the passive leak at −140 mV. The leak current was subtracted from the control and steady-state drug current values. The percentage inhibition of the leak-subtracted current in the presence of test substance was calculated relative to the control leak-subtracted pre-drug value. Internal patch-pipette solution contained in mM: 110 KCl, 20 NaCl, 0.9 GTPγS, 5 Mg-ATP, 5 EGTA, 10 HEPES, pH7.2 corrected with KOH. The external superfusate composition in mM was: 150 (or 160) NaCl, 10 (or 0) KCl, 3 CaCl2, 1 MgCl, 10 HEPES, pH 7.4 corrected with NaOH.
On the technique in general: The patch-clamp technique gives a direct electrical read-out from membranes.
For orientation: pIC50 means −log10 of the IC50, conventionally taken in molar units. In the case of `c1ccc(-c2csc3[nH]nc(N4CCC(COCCN5CCCC5)CC4)c23)cc1` [Compound 1, 4-phenyl-3-[4-(2-pyrrolidin-1-ylethoxymethyl)-1-piperidyl]-1H-thieno[2,3-c]pyrazole], the negative logarithm of the IC50 (pIC50) was greater than 6.30.

For the compound `Brc1sc2[nH]nc(N3CC4CC3CC4OCCN3CCCC3)c2c1-c1ccccc1` (centres unmarked) [Compound 2, 5-bromo-4-phenyl-3-[5-(2-pyrrolidin-1-ylethoxy)-2-azabicyclo[2.2.1]heptan-2-yl]-1H-thieno[2,3-c]pyrazole], the pIC50 was greater than 6.30.

In turn, `N#Cc1sc2[nH]nc(N3CCC(COCCN4CCCC4)CC3)c2c1-c1ccccc1` [Compound 3, 4-phenyl-3-[4-(2-pyrrolidin-1-ylethoxymethyl)-1-piperidyl]-1H-thieno[2,3-c]pyrazole-5-carbonitrile] had a negative-log IC50 (pIC50) greater than 6.30.

As to `c1ccc(-c2csc3[nH]nc(N4CC5CC4CC5OCCN4CCCC4)c23)cc1` (centres unmarked) [Compound 4, 4-phenyl-3-[5-(2-pyrrolidin-1-ylethoxy)-2-azabicyclo[2.2.1]heptan-2-yl]-1H-thieno[2,3-c]pyrazole], the negative logarithm of the IC50 (pIC50) was greater than 6.30.

`Fc1ccc(-c2csc3[nH]nc(N4CC5CC4CC5OCCN4CCCC4)c23)cc1` (centres unmarked) [Compound 5, 4-(4-fluorophenyl)-3-[5-(2-pyrrolidin-1-ylethoxy)-2-azabicyclo[2.2.1]heptan-2-yl]-1H-thieno[2,3-c]pyrazole] showed a pIC50 greater than 6.30.

Consider `c1ccc(-c2csc3[nH]nc(N4C5CCC4CC(COCCN4CCCC4)C5)c23)cc1` (centres unmarked) [Compound 6, 4-phenyl-3-[3-(2-pyrrolidin-1-ylethoxymethyl)-8-azabicyclo[3.2.1]octan-8-yl]-1H-thieno[2,3-c]pyrazole], for which the negative-log IC50 (pIC50) is greater than 6.30.

Turning to `c1ccc(-c2csc3[nH]nc(N4C5CCC4CC(OCCN4CCCC4)C5)c23)cc1` (centres unmarked) [Compound 7, 4-phenyl-3-[3-(2-pyrrolidin-1-ylethoxy)-8-azabicyclo[3.2.1]octan-8-yl]-1H-thieno[2,3-c]pyrazole], the pIC50 is greater than 6.30.

In turn, `c1ccc(-c2csc3[nH]nc(N4CCCC(COCCN5CCCC5)C4)c23)cc1` (centres unmarked) [Compound 8, 4-phenyl-3-[3-(2-pyrrolidin-1-ylethoxymethyl)-1-piperidyl]-1H-thieno[2,3-c]pyrazole] showed a pIC50 greater than 6.30.

In turn, `c1ccc(-c2csc3[nH]nc(N4CCC(COCCN5CCCC5)C4)c23)cc1` (centres unmarked) [Compound 9, 4-phenyl-3-[3-(2-pyrrolidin-1-ylethoxymethyl)pyrrolidin-1-yl]-1H-thieno[2,3-c]pyrazole] gave a pIC50 greater than 6.30.

Regarding `c1ccc(-c2csc3[nH]nc(N4C5CCC4CC(NC4CCC4)C5)c23)cc1` (centres unmarked) [Compound 10, N-cyclobutyl-8-(4-phenyl-1H-thieno[2,3-c]pyrazol-3-yl)-8-azabicyclo[3.2.1]octan-3-amine], the pIC50 was greater than 6.30.

With `c1ccc(-c2csc3[nH]nc(N4C5CCC4CC(N4CCC4)C5)c23)cc1` (centres unmarked) [Compound 11, 3-[3-(azetidin-1-yl)-8-azabicyclo[3.2.1]octan-8-yl]-4-phenyl-1H-thieno[2,3-c]pyrazole], the negative-log IC50 (pIC50) was 5.52 to 6.30.

For `CC(C)NC1CC2CCC(C1)N2c1n[nH]c2scc(-c3ccccc3)c12` (centres unmarked) [Compound 12, N-isopropyl-8-(4-phenyl-1H-thieno[2,3-c]pyrazol-3-yl)-8-azabicyclo[3.2.1]octan-3-amine], the pIC50 was 5.52 to 6.30.

Compound `CC(=O)n1nc(N2CCC(COCCN3CCCC3)CC2)c2c(-c3ccccc3)csc21` [Compound 13, 1-[4-phenyl-3-[4-(2-pyrrolidin-1-ylethoxymethyl)-1-piperidyl]thieno[2,3-c]pyrazol-1-yl]ethanone] gave a negative-log IC50 (pIC50) greater than 6.30.

Compound `CC(=O)n1nc(N2CC3CC2CC3OCCN2CCCC2)c2c(-c3ccccc3)csc21` (centres unmarked) [Compound 14, 1-[4-phenyl-3-[5-(2-pyrrolidin-1-ylethoxy)-2-azabicyclo[2.2.1]heptan-2-yl]thieno[2,3-c]pyrazol-1-yl]ethanone] had a negative logarithm of the IC50 (pIC50) greater than 6.30.

`CC(=O)n1nc(N2CC3CC2CC3OCCN2CCCC2)c2c(-c3ccc(F)cc3)csc21` (centres unmarked) [Compound 15, 1-[4-(4-fluorophenyl)-3-[5-(2-pyrrolidin-1-ylethoxy)-2-azabicyclo[2.2.1]heptan-2-yl]thieno[2,3-c]pyrazol-1-yl]ethanone]: the pIC50 is greater than 6.30.

`CS(=O)(=O)n1nc(N2CC3CC2CC3OCCN2CCCC2)c2c(-c3ccc(F)cc3)csc21` (centres unmarked) [Compound 16, 4-(4-fluorophenyl)-1-methylsulfonyl-3-[5-(2-pyrrolidin-1-ylethoxy)-2-azabicyclo[2.2.1]heptan-2-yl]thieno[2,3-c]pyrazole] showed a negative logarithm of the IC50 (pIC50) greater than 6.30.

`CC(=O)n1nc(N2C3CCC2CC(OCCN2CCCC2)C3)c2c(-c3ccccc3)csc21` (centres unmarked) [Compound 17, 1-[4-phenyl-3-[3-(2-pyrrolidin-1-ylethoxy)-8-azabicyclo[3.2.1]octan-8-yl]thieno[2,3-c]pyrazol-1-yl]ethanone] showed a pIC50 greater than 6.30.

The compound `CC(=O)n1nc(N2CCCC(COCCN3CCCC3)C2)c2c(-c3ccccc3)csc21` (centres unmarked) [Compound 18, 1-[4-phenyl-3-[3-(2-pyrrolidin-1-ylethoxymethyl)-1-piperidyl]thieno[2,3-c]pyrazol-1-yl]ethanone] had a pIC50 greater than 6.30.

The compound `CC(=O)n1nc(N2CCC(COCCN3CCCC3)C2)c2c(-c3ccccc3)csc21` (centres unmarked) [Compound 19, 1-[4-phenyl-3-[3-(2-pyrrolidin-1-ylethoxymethyl)pyrrolidin-1-yl]thieno[2,3-c]pyrazol-1-yl]ethanone] showed a negative logarithm of the IC50 (pIC50) greater than 6.30.

Compound `CS(=O)(=O)n1nc(N2CCC(COCCN3CCCC3)CC2)c2c(-c3ccccc3)csc21` [Compound 20, 1-methylsulfonyl-4-phenyl-3-[4-(2-pyrrolidin-1-ylethoxymethyl)-1-piperidyl]thieno[2,3-c]pyrazole] had a pIC50 greater than 6.30.

Compound `Cn1nc(N2CCC(COCCN3CCCC3)CC2)c2c(-c3ccccc3)csc21` [Compound 21, 1-methyl-4-phenyl-3-[4-(2-pyrrolidin-1-ylethoxymethyl)-1-piperidyl]thieno[2,3-c]pyrazole] had a negative-log IC50 (pIC50) greater than 6.30.

The compound `CN(C)C(=O)c1sc2c(c(N3CCC(COCCN4CCCC4)CC3)nn2C)c1-c1ccccc1` [Compound 22, N,N,1-trimethyl-4-phenyl-3-[4-(2-pyrrolidin-1-ylethoxymethyl)-1-piperidyl]thieno[2,3-c]pyrazole-5-carboxamide] showed a negative logarithm of the IC50 (pIC50) of 5.52 to 6.30.

Consider `CN(C)C(=O)c1sc2[nH]nc(N3CCC(COCCN4CCCC4)CC3)c2c1-c1ccccc1` [Compound 23, N,N-dimethyl-4-phenyl-3-[4-(2-pyrrolidin-1-ylethoxymethyl)-1-piperidyl]-1H-thieno[2,3-c]pyrazole-5-carboxamide], for which the negative logarithm of the IC50 (pIC50) was 5.52 to 6.30.
